Experimental data reported in PubChem BioAssay (NCI).
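GI50 marks 50% less growth. TGI is the concentration that stops growth completely.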

Key:
Assay in all cases: NCI-60 cell line screen, 384-well format
786-0 renal = test system: 786-0 renal
A498 renal = test system: A498 renal
A549 NSCLC = test system: A549 NSCLC
ACHN renal = test system: ACHN renal
BT-549 breast = test system: BT-549 breast
CAKI-1 renal = test system: CAKI-1 renal
CCRF-CEM leukemia = test system: CCRF-CEM leukemia
COLO 205 colon = test system: COLO 205 colon
DU-145 prostate = test system: DU-145 prostate
EKVX NSCLC = test system: EKVX NSCLC
HCC-2998 colon = test system: HCC-2998 colon
HCT-116 colon = test system: HCT-116 colon
HCT-15 colon = test system: HCT-15 colon
HL-60(TB) leukemia = test system: HL-60(TB) leukemia
HOP-62 NSCLC = test system: HOP-62 NSCLC
HOP-92 NSCLC = test system: HOP-92 NSCLC
HS 578T breast = test system: HS 578T breast
HT29 colon = test system: HT29 colon
IGROV1 ovarian = test system: IGROV1 ovarian
K-562 leukemia = test system: K-562 leukemia
KM12 colon = test system: KM12 colon
LOX IMVI melanoma = test system: LOX IMVI melanoma
M14 melanoma = test system: M14 melanoma
MALME-3M melanoma = test system: MALME-3M melanoma
MCF7 breast = test system: MCF7 breast
MDA-MB-231 breast = test system: MDA-MB-231 breast
MDA-MB-435 melanoma = test system: MDA-MB-435 melanoma
MDA-MB-468 breast = test system: MDA-MB-468 breast
MOLT-4 leukemia = test system: MOLT-4 leukemia
NCI-H226 lung = test system: NCI-H226 lung
NCI-H23 lung = test system: NCI-H23 lung
NCI-H322M lung = test system: NCI-H322M lung
NCI-H460 NSCLC = test system: NCI-H460 NSCLC
NCI-H522 lung = test system: NCI-H522 lung
NCI/ADR-RES ovarian = test system: NCI/ADR-RES ovarian
OVCAR-3 ovarian = test system: OVCAR-3 ovarian
OVCAR-4 ovarian = test system: OVCAR-4 ovarian
OVCAR-8 ovarian = test system: OVCAR-8 ovarian
PC-3 prostate = test system: PC-3 prostate
RPMI-8226 leukemia = test system: RPMI-8226 leukemia
RXF 393 renal = test system: RXF 393 renal
SF-268 CNS = test system: SF-268 CNS
SF-295 CNS = test system: SF-295 CNS
SF-539 CNS = test system: SF-539 CNS
SK-MEL-28 melanoma = test system: SK-MEL-28 melanoma
SK-MEL-5 melanoma = test system: SK-MEL-5 melanoma
SK-OV-3 ovarian = test system: SK-OV-3 ovarian
SN12C renal = test system: SN12C renal
SNB-19 CNS = test system: SNB-19 CNS
SNB-75 CNS = test system: SNB-75 CNS
SR leukemia = test system: SR leukemia
SW-620 colon = test system: SW-620 colon
T-47D breast = test system: T-47D breast
TK-10 renal = test system: TK-10 renal
U251 glioblastoma = test system: U251 glioblastoma
UACC-257 melanoma = test system: UACC-257 melanoma
UACC-62 melanoma = test system: UACC-62 melanoma
UO-31 renal = test system: UO-31 renal

CC(C)c1c(-c2ccccc2)nc2c(C#N)c[nH]n2c1=O
GI50 ([…]-0 renal): 33.6 µM
TGI (786-0 renal): > 100 µM
GI50 (A498 renal): 40.2 µM
TGI (A498 renal): > 100 µM
GI50 (A549 NSCLC): 33.1 µM
TGI (A549 NSCLC): > 100 µM
GI50 (ACHN renal): 38.3 µM
TGI (ACHN renal): > 100 µM
GI50 (BT-549 breast): 39.9 µM
TGI (BT-549 breast): > 100 µM
GI50 (CAKI-1 renal): 44.8 µM
TGI (CAKI-1 renal): > 100 µM
GI50 (CCRF-CEM leukemia): 20.8 µM
TGI (CCRF-CEM leukemia): 42.4 µM
GI50 (COLO 205 colon): 24.1 µM
TGI (COLO 205 colon): 47.9 µM
GI50 (DU-145 prostate): 31.9 µM
TGI (DU-145 prostate): > 100 µM
GI50 (EKVX NSCLC): 22.4 µM
TGI (EKVX NSCLC): 46.4 µM
GI50 (HCC-2998 colon): 44.9 µM
TGI (HCC-2998 colon): > 100 µM
GI50 (HCT-116 colon): 34.5 µM
TGI (HCT-116 colon): > 100 µM
GI50 (HCT-15 colon): 38.8 µM
TGI (HCT-15 colon): > 100 µM
GI50 (HL-60(TB) leukemia): 12.2 µM
TGI (HL-60(TB) leukemia): 25.7 µM
GI50 (HOP-62 NSCLC): 24.9 µM
TGI (HOP-62 NSCLC): 65.9 µM
GI50 (HOP-92 NSCLC): 30.5 µM
TGI (HOP-92 NSCLC): 89 µM
GI50 (HS 578T breast): 37.7 µM
TGI (HS 578T breast): > 100 µM
GI50 (HT29 colon): 38 µM
TGI (HT29 colon): > 100 µM
GI50 (IGROV1 ovarian): 44 µM
TGI (IGROV1 ovarian): > 100 µM
GI50 (K-562 leukemia): 37.7 µM
TGI (K-562 leukemia): > 100 µM
GI50 (KM12 colon): 30.8 µM
TGI (KM12 colon): > 100 µM
GI50 (LOX IMVI melanoma): 21.1 µM
TGI (LOX IMVI melanoma): 41.9 µM
GI50 (M14 melanoma): 30.7 µM
TGI (M14 melanoma): 96.8 µM
GI50 (MALME-3M melanoma): 17.6 µM
TGI (MALME-3M melanoma): 36.1 µM
GI50 (MCF7 breast): 20.9 µM
TGI (MCF7 breast): 54.7 µM
GI50 (MDA-MB-231 breast): 24.2 µM
TGI (MDA-MB-231 breast): 53.5 µM
GI50 (MDA-MB-435 melanoma): 39.9 µM
TGI (MDA-MB-435 melanoma): > 100 µM
GI50 (MDA-MB-468 breast): 19.6 µM
TGI (MDA-MB-468 breast): 37.2 µM
GI50 (MOLT-4 leukemia): 16.2 µM
TGI (MOLT-4 leukemia): 29.9 µM
GI50 (NCI-H226 lung): 27 µM
TGI (NCI-H226 lung): 70.9 µM
GI50 (NCI-H23 lung): 20.3 µM
TGI (NCI-H23 lung): 44.5 µM
GI50 (NCI-H322M lung): 33.6 µM
TGI (NCI-H322M lung): > 100 µM
GI50 (NCI-H460 NSCLC): 27.4 µM
TGI (NCI-H460 NSCLC): 65.3 µM
GI50 (NCI-H522 lung): 19 µM
TGI (NCI-H522 lung): 37.6 µM
GI50 (NCI/ADR-RES ovarian): 27.5 µM
TGI (NCI/ADR-RES ovarian): 69.5 µM
GI50 (OVCAR-3 ovarian): 18 µM
TGI (OVCAR-3 ovarian): 36.3 µM
GI50 (OVCAR-4 ovarian): 25.9 µM
TGI (OVCAR-4 ovarian): 74.2 µM
GI50 (OVCAR-8 ovarian): 37.6 µM
TGI (OVCAR-8 ovarian): > 100 µM
GI50 (PC-3 prostate): 37.2 µM
TGI (PC-3 prostate): > 100 µM
GI50 (RPMI-8226 leukemia): 21.1 µM
TGI (RPMI-8226 leukemia): 37.9 µM
GI50 (RXF 393 renal): 28.6 µM
TGI (RXF 393 renal): > 100 µM
GI50 (SF-268 CNS): 36.6 µM
TGI (SF-268 CNS): > 100 µM
GI50 (SF-295 CNS): 22.9 µM
TGI (SF-295 CNS): 62.4 µM
GI50 (SF-539 CNS): 34.2 µM
TGI (SF-539 CNS): > 100 µM
GI50 (SK-MEL-28 melanoma): 28.5 µM
TGI (SK-MEL-28 melanoma): 96.8 µM
GI50 (SK-MEL-5 melanoma): 19.4 µM
TGI (SK-MEL-5 melanoma): 35.6 µM
GI50 (SK-OV-3 ovarian): 36.8 µM
TGI (SK-OV-3 ovarian): > 100 µM
GI50 (SN12C renal): 20.3 µM
TGI (SN12C renal): 41.9 µM
GI50 (SNB-19 CNS): 43.6 µM
TGI (SNB-19 CNS): > 100 µM
GI50 (SNB-75 CNS): 35.2 µM
TGI (SNB-75 CNS): > 100 µM
GI50 (SR leukemia): 25.2 µM
TGI (SR leukemia): 41.2 µM
GI50 (SW-620 colon): 38.8 µM
TGI (SW-620 colon): > 100 µM
GI50 (T-47D breast): 21 µM
TGI (T-47D breast): 42.9 µM
GI50 (TK-10 renal): 34.1 µM
TGI (TK-10 renal): > 100 µM
GI50 (U251 glioblastoma): 34.4 µM
TGI (U251 glioblastoma): > 100 µM
GI50 (UACC-257 melanoma): 22.3 µM
TGI (UACC-257 melanoma): 46.3 µM
GI50 (UACC-62 melanoma): 24.2 µM
TGI (UACC-62 melanoma): 66.7 µM
GI50 (UO-31 renal): 38.9 µM
TGI (UO-31 renal): > 100 µM
